Molecular target: B-Raf (V600E)-kinase (Homo sapiens (Human), UniProt P15056, V600E)
Assay: Kinase test B-Raf (V600E)
Assay type: biochemical
Conditions: 1 h preincubation, 250 μM ATP
Method: In a dilution series 10 μL/well of test substance solution are placed in a multiwell plate. The dilution series is selected so that generally a range of concentrations of 2 μM to 0.119 nM or 0.017 nM is covered. If necessary the initial concentration of 2 μM is changed to 50 μM, 10 μM or 0.4 μM or 0.2857 μM and further dilution is carried out accordingly. The final concentration of DMSO is 5%. 10 μL/well of the B-Raf (V600E)-kinase solution are pipetted in (containing 0.5 ng B-Raf (V600E)-kinase (e.g. from Upstate) in 20 mM Tris-HCl pH 7.5, 0.1 mM EDTA, 0.1 mM EGTA, 0.286 mM sodium orthovanadate, 10% glycerol, 1 mg/mL bovine serum albumin, 1 mM dithiothreitol) and the mixture is incubated for 1 h at RT under with shaking. The kinase reaction is started by the addition of 20 μL/well ATP solution [final concentration: 250 μM ATP, 30 mM Tris-HCl pH 7.5, 0.02% Brij, 0.2 mM sodium orthovanadate, 10 mM magnesium acetate, 0.1 mM EGTA, phosphatase cocktail (Sigma, #P2850, dilution recommended by the manufacturer)] and 10 μL/well MEK1 solution [containing 50 ng biotinylated MEK1 (prepared from purified MEK1 according to standard procedure, e.g. with EZ-Link Sulpho-NHS-LC-Biotin reagent, Pierce, #21335)] and carried out for 60 min at RT with constant shaking. The reaction is stopped by the addition of 12 μL/well of a 100 mM EDTA solution and incubation is continued for a further 5 min. 55 μL/well of the reaction solution are transferred into a streptavidin-coated plate (e.g. Streptawell HighBond, Roche, #11989685001) and shaken gently for 1 h at RT, in order to bind biotinylated MEK1 to the plate. After elimination of the liquid the plate is washed five times with 200 μL/well of 1×PBS and 100 μL/well solution of primary antibody plus europium-labelled secondary antibody [Anti Phospho-MEK (Ser217/221), Cell Signaling, #9121 and Eu-N1 labelled goat-anti-rabbit antibody, Perkin Elmer, #AD0105] is added, the primary antibody is diluted 1:2000 and the secondary antibody is diluted to 0.4-0.5 μg/mL in Delfia Assay Buffer (Perkin Elmer, #1244-111). After 1 h shaking at RT the solution is poured away and washed five times with 200 μL/well Delfia Wash Buffer (Perkin Elmer, #4010-0010/#1244-114). After the addition of 200 μL/well Enhancement Solution (Perkin Elmer, #4001-0010/#1244-105) the mixture is shaken for 10 min at RT and then measured in a Wallac Victor using the program “Delfia Time Resolved Fluorescence (Europium)”. IC50 values are obtained from these dosage-activity curves using a software program (GraphPadPrizm).

B-Raf (V600E)-kinase, sequence (P15056 whole entry V600E): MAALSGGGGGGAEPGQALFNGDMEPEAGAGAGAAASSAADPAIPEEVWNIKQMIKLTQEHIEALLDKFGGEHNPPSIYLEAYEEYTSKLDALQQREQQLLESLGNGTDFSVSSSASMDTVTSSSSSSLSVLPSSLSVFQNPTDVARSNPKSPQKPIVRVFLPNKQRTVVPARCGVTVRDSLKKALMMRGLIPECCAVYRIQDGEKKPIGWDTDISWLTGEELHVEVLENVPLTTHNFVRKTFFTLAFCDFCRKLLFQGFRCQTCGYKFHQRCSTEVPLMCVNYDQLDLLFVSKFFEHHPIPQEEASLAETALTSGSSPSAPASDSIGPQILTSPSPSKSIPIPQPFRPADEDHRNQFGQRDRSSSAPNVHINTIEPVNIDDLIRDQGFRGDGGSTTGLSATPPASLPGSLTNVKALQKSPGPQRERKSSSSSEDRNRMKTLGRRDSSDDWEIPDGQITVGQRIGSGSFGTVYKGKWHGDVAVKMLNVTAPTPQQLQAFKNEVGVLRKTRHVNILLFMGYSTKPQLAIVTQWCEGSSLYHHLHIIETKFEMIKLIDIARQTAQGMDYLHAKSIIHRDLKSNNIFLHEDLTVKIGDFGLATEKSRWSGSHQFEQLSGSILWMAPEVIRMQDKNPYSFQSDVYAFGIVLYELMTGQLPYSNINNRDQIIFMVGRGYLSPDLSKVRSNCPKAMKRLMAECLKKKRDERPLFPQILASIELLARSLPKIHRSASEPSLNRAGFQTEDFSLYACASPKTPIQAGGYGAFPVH

Structure (SMILES) | IC50 [nM]
Cc1ccc(NC(=O)c2cc(C)n(C(C)(C)C)n2)cc1-n1cc(-c2cncc(N3CCOCC3)c2)nn1 [II-9] | 18
Cc1ccc(C(=O)Nc2cc(C(F)(F)F)ccn2)cc1-n1cc(-c2cncc(N3CCC3)c2)nn1 [I-57] | 16
Cc1ccc(C(=O)Nc2cc(C(F)(F)F)ccn2)cc1-n1cc(-c2cncc(N3C[C@@H]4C[C@H]3CN4)c2)nn1 [I-71] | 4
Cc1ccc(C(=O)Nc2cc(C(C)(C)C)on2)cc1-n1cc(-c2cncc(N3CCN(C(C)C)C(C)C3)c2)nn1 (stereo not drawn) [I-37] | 20
Cc1ccc(C(=O)Nc2cc(C(C)(C)C)on2)cc1-n1cc(-c2cncc(NC3CCOCC3)c2)nn1 [I-38] | 10
Cc1ccc(C(=O)Nc2cc(C(C)(C)C)on2)cc1-n1cc(-c2cncc(N3CCN(C4CC4)CC3)c2)nn1 [I-26] | 28
Cc1ccc(C(=O)Nc2cc(C(C)(C)C)on2)cc1-n1cc(-c2cncc(N(C)C3CCOC3)c2)nn1 (stereo not drawn) [I-10] | 8
Cc1ccc(C(=O)Nc2cc(C(F)(F)F)ccn2)cc1-n1cc(-c2cncc(NCC3CCCO3)c2)nn1 (stereo not drawn) [I-58] | 11
Cc1ccc(C(=O)Nc2cc(C(F)(F)F)ccn2)cc1-n1cc(-c2cncc(NC3CCN(C)CC3)c2)nn1 [I-76] | 21
Cc1ccc(C(=O)Nc2cc(C(F)(F)F)ccn2)cc1-n1cc(-c2cncc(NC3CCOC3)c2)nn1 (stereo not drawn) [I-70] | 11
Cc1ccc(C(=O)Nc2cc(C(F)(F)F)ccn2)cc1-n1cc(-c2cncc(N(C)C3CCN(C)C3)c2)nn1 (stereo not drawn) [I-78] | 4
Cc1ccc(C(=O)Nc2cc(C(C)(C)C)on2)cc1-n1cc(-c2cncc(N3CCC(N(C)C)CC3)c2)nn1 [I-51] | 12
Cc1ccc(NC(=O)c2ccc(C(C)(C)C)s2)cc1-n1cc(-c2cncc(N3CCN(C(=O)OC(C)(C)C)CC3)c2)nn1 [II-23] | 141
Cc1ccc(NC(=O)c2cc(C)n(C(C)(C)C)n2)cc1-n1cc(-c2cncc(N3CCN(C(C)C)CC3)c2)nn1 [II-36] | 13
Cc1ccc(C(=O)Nc2cc(C(F)(F)F)ccn2)cc1-n1cc(-c2cncc(N3CCC(N(C)C)C3)c2)nn1 (stereo not drawn) [I-75] | 7
Cc1ccc(NC(=O)c2cc(C(C)(C)C)nn2C)cc1-n1cc(-c2cncc(N3CCN(C)CC3)c2)nn1 [II-6] | 8
Cc1ccc(C(=O)Nc2cc(C(F)(F)F)ccn2)cc1-n1cc(-c2cncc(N3CC[C@H](N(C)C)C3)c2)nn1 [I-79] | 9
COCCCN1CCN(c2cncc(-c3cn(-c4cc(C(=O)Nc5cc(C(C)(C)C)on5)ccc4C)nn3)c2)CC1 [I-40] | 19
Cc1ccc(C(=O)Nc2cc(C(F)(F)F)ccn2)cc1-n1cc(-c2cncc(N(C)CC3CCCO3)c2)nn1 (stereo not drawn) [I-59] | 44
Cc1ccc(C(=O)Nc2cc(C(C)(C)C)on2)cc1-n1cc(-c2cncc(N3CCN(C)CC3)c2)nn1 [I-1] | 8

Structure (SMILES) | IC50 [nM]
Cc1ccc(C(=O)Nc2cc(C(F)(F)F)ccn2)cc1-n1cc(-c2cncc(N3CCN(C)CC3)c2)nn1 [I-83] | 7
Cc1ccc(C(=O)Nc2cc(C(C)(C)C)on2)cc1-n1cc(-c2cncc(N(C)C(C)C)c2)nn1 [I-35] | 45
Cc1ccc(C(=O)Nc2cc(C(C)(C)C)on2)cc1-n1cc(-c2cncc(N3CCN(C)C(C)C3)c2)nn1 (stereo not drawn) [I-15] | 21
Cc1ccc(NC(=O)c2cc(CNC3CCN(C)CC3)c(C(C)(C)C)o2)cc1-n1cc(-c2cncc(N3CCOCC3)c2)nn1 [II-41] | 14
Cc1ccc(C(=O)Nc2cc(C(F)(F)F)ccn2)cc1-n1cc(-c2cncc(N3CCCCC3)c2)nn1 [I-64] | 69
CCOCCN1CCN(c2cncc(-c3cn(-c4cc(NC(=O)c5ccc(C(C)(C)C)s5)ccc4C)nn3)c2)CC1 [II-28] | 10
Cc1ccc(C(=O)Nc2cc(C(C)(C)C)on2)cc1-n1cc(-c2cncc(N(C)CCN(C)C)c2)nn1 [I-3] | 7
Cc1ccc(C(=O)Nc2cc(C(F)(F)F)ccn2)cc1-n1cc(-c2cncc(N3CC[C@@H](N(C)C)C3)c2)nn1 [I-80] | 15
CCN(C)c1cncc(-c2cn(-c3cc(C(=O)Nc4cc(C(C)(C)C)on4)ccc3C)nn2)c1 [I-56] | 18
Cc1ccc(C(=O)Nc2cc(C(C)(C)C)on2)cc1-n1cc(-c2cncc(N3CCCC3)c2)nn1 [I-39] | 41
Cc1ccc(C(=O)Nc2cc(C(F)(F)F)ccn2)cc1-n1cc(-c2cncc(N3CCCOCC3)c2)nn1 [I-67] | 24
COCCNc1cncc(-c2cn(-c3cc(C(=O)Nc4cc(C(C)(C)C)on4)ccc3C)nn2)c1 [I-36] | 16
Cc1ccc(C(=O)Nc2cc(C(C)(C)C)on2)cc1-n1cc(-c2cncc(NCCF)c2)nn1 [I-22] | 16
Cc1ccc(C(=O)Nc2cc(C(F)(F)F)ccn2)cc1-n1cc(-c2cncc(N3CCC(N(C)C)CC3)c2)nn1 [I-60] | 8
CCCCN1CCN(c2cncc(-c3cn(-c4cc(C(=O)Nc5cc(C(C)(C)C)on5)ccc4C)nn3)c2)CC1 [I-27] | 15
Cc1ccc(C(=O)Nc2cc(C(C)(C)C)on2)cc1-n1cc(-c2cncc(N3CCCN(C(C)C)CC3)c2)nn1 [I-52] | 18
Cc1ccc(C(=O)Nc2cc(C(C)(C)C)on2)cc1-n1cc(-c2cncc(NC3CCOC3)c2)nn1 (stereo not drawn) [I-11] | 6
Cc1ccc(NC(=O)c2cc(C(C)(C)C)on2)cc1-n1cc(-c2cncc(N3CCN(C)CC3)c2)nn1 [II-8] | 5
CCN1CCN(c2cncc(-c3cn(-c4cc(C(=O)Nc5cc(C(F)(F)F)ccn5)ccc4C)nn3)c2)CC1 [I-87] | 7
Cc1ccc(C(=O)Nc2cc(C(C)(C)C)on2)cc1-n1cc(-c2cncc(N3CCN(CCN4CCOCC4)CC3)c2)nn1 [I-16] | 14

Structure (SMILES) | IC50 [nM]
CCCN1CCN(c2cncc(-c3cn(-c4cc(NC(=O)c5ccc(C(C)(C)C)s5)ccc4C)nn3)c2)CC1 [II-25] | 9
CCCN1CCN(c2cncc(-c3cn(-c4cc(NC(=O)c5cc(C)n(C(C)(C)C)n5)ccc4C)nn3)c2)CC1 [II-37] | 11
Cc1ccc(C(=O)Nc2cc(C(C)(C)C)on2)cc1-n1cc(-c2cncc(N3CCCOCC3)c2)nn1 [I-17] | 16
Cc1ccc(C(=O)Nc2cc(C(F)(F)F)ccn2)cc1-n1cc(-c2cncc(N(C)C3CCN(C)CC3)c2)nn1 [I-74] | 12
COCCN1CCN(c2cncc(-c3cn(-c4cc(C(=O)Nc5cc(C(F)(F)F)ccn5)ccc4C)nn3)c2)CC1 [I-61] | 11
Cc1ccc(NC(=O)c2cc(C)n(C(C)(C)C)n2)cc1-n1cc(-c2cncc(N3CCN(C4CC4)CC3)c2)nn1 [II-34] | 31
Cc1ccc(NC(=O)c2ccc(C(C)(C)C)s2)cc1-n1cc(-c2cncc(N3CCN(CC4CC4)CC3)c2)nn1 [II-31] | 8
Cc1ccc(C(=O)Nc2cc(C(C)(C)C)on2)cc1-n1cc(-c2cncc(N3CCN(C(C)C)CC3)c2)nn1 [I-44] | 11
Cc1ccc(C(=O)Nc2cc(C(F)(F)F)ccn2)cc1-n1cc(-c2cncc(N(C)C)c2)nn1 [I-62] | 24
Cc1ccc(C(=O)Nc2cc(C(C)(C)C)on2)cc1-n1cc(-c2cncc(N3CCN(C(C)(C)C)CC3)c2)nn1 [I-4] | 12
C=CCN1CCN(c2cncc(-c3cn(-c4cc(C(=O)Nc5cc(C(C)(C)C)on5)ccc4C)nn3)c2)CC1 [I-6] | 22
Cc1ccc(C(=O)Nc2cc(C(C)(C)C)on2)cc1-n1cc(-c2cncc(N3CCC(CN(C)C)CC3)c2)nn1 [I-9] | 12
CNc1cncc(-c2cn(-c3cc(C(=O)Nc4cc(C(C)(C)C)on4)ccc3C)nn2)c1 [I-30] | 14
Cc1ccc(C(=O)Nc2cc(C(C)(C)C)on2)cc1-n1cc(-c2cncc(N3CCN(C4CCCC4)CC3)c2)nn1 [I-5] | 14
Cc1ccc(C(=O)Nc2cc(C(F)(F)F)ccn2)cc1-n1cc(-c2cncc(N3CCCC3)c2)nn1 [I-84] | 7
Cc1ccc(C(=O)Nc2cc(C(C)(C)C)on2)cc1-n1cc(-c2cncc(N3CCC(N4CCN(C(C)C)CC4)C3)c2)nn1 (stereo not drawn) [I-92] | 8
Cc1ccc(NC(=O)c2ccc(C(C)(C)C)o2)cc1-n1cc(-c2cncc(N3CCNCC3)c2)nn1 [II-21] | 1
CCN1CCC2(CCN(c3cncc(-c4cn(-c5cc(C(=O)Nc6cc(C(C)(C)C)on6)ccc5C)nn4)c3)C2)C1 (stereo not drawn) [I-7] | 9
Cc1ccc(C(=O)Nc2cc(C(F)(F)F)ccn2)cc1-n1cc(-c2cncc(NC3CC3)c2)nn1 [I-66] | 44
CCN1CCN(c2cncc(-c3cn(-c4cc(NC(=O)c5cc(C)n(C(C)(C)C)n5)ccc4C)nn3)c2)CC1 [II-35] | 10

Reference: patent US9290507B2, “B-RAF kinase inhibitors” (Boehringer Ingelheim International GmbH, priority 2010, dated 2016)
